From patent publication US5286492A, “Method of treatment of Heliobacter pylori infections with triclosan” (Reckitt & Colman Products Limited, priority 1990, dated 1994)
In brackets after ≈: the same amount, converted by molar mass. Read-outs that look alike come from different tables or passages of the source.

Tests used:
Helicobacter pylori [1] = experiment: MIC50/MIC90 versus Helicobacter pylori by agar dilution technique at neutral pH; format: cell-based; conditions: for activity compared with the twelve agents tested: Table 1
Experimental: (§1) The in vitro activities of a range of antimicrobial compounds versus Helicobacter pylori were determined by methods based on those of McNulty et al (Antimicrobial Agents and Chemotherapy, 28, 837-838, 1985). The Minimum Inhibitory concentrations for 50% and 90% of the strains used (MIC50 and MIC90), versus each antimicrobial were determined using an agar dilution technique.
(§2) The MIC of an antimicrobial agent was defined as that concentration (in mg per liter of agar) at which less than 1 in 10^5 organisms produced visible colonies.
(§3) Helicobacter pylori strains were isolated from gastric antrum biopsy specimens taken at routine endoscopy during investigation of upper gastrointestinal symptoms. They were identified as Helicobacter pylori by their colonial morphology, gram stain appearance and positive rapid urease test. The organisms were stored in liquid nitrogen before use and subcultured for testing by 48 hour incubation, at 37° C. under 10% carbon dioxide in Tryptone Soya Broth (TSB, OXOID, UK) plus 5% horse serum (Tissue Culture Services, UK).
The first test procedure determined the effectiveness of a range of antimicrobial substances versus 16 to 18 strains of Helicobacter pylori at neutral pH. Freshly prepared Isosensitest Agar of pH 7.2 (Oxoid, UK) supplemented with 10% saponinlysed horse blood was used to prepare a dilution series of each antimicrobial from which agar plates were produced. A multipoint inoculator (Denley-Tech, UK) was used to deliver 1 µl of undiluted test culture to the surface of each plate in the dilution series to give approximately 10^6 cfu/spot. The plates were incubated for three days at 37° C. in a microaerobic atmosphere of 6% oxygen and 10% carbon dioxide.

Helicobacter pylori [2] = experiment: Effect of pH (5 to 8) on activity (MIC90) against Helicobacter pylori, agar dilution; format: cell-based; conditions: for MIC / MIC90: Helicobacter pylori; for activity compared among the three agents (in words) / effect of pH on activity (in words): pH range 5 to 8
Experimental: as §1, §2, §3
The three selected agents were triclosan, clioquinol (5-chloro-7-iodo-8-hydroxy-quinolone) and cetalkonium chloride.
In the test procedure, Sorensens phosphate buffer (0.1M) was used to prepare the range of pH values 5, 5.5, 6, 6.5, 7, 7.5 and 8. Oxoid Columbia Agar Base (CM331) was added and the media autoclaved. After cooling to 50° C., 7% Lysed Horse Blood (Tissue Culture Services, UK) was added and media at each pH was used to prepare a range of concentrations of the three selected test antimicrobial agents. To ensure pH stability, a surface pH electrode was used to monitor control plates before, during and at the end of the three day microaerobic incubation.
The MIC90 was determined for each at each pH as described in the previous test procedure.

Helicobacter pylori [3] = conditions: cited from earlier work
[4] = test system: Helicobacter pylori infection; conditions: by twelve months post therapy; cited from earlier work
[5] = Helicobacter pylori, 72 h, eighteen isolates, neutral pH (agar pH 7.2), read-out: MIC50
[6] = Helicobacter pylori, eighteen isolates, neutral pH (agar pH 7.2), read-out: MIC Range
[7] = pH 5.0, sixteen isolates (triclosan, clioquinol) or eighteen (cetalkonium chloride), read-out: MIC90
[8] = pH 5.0, sixteen isolates (triclosan, clioquinol) or eighteen (cetalkonium chloride), read-out: MIC Range
[9] = pH 5.5, sixteen isolates (triclosan, clioquinol) or eighteen (cetalkonium chloride), read-out: MIC90
[10] = pH 5.5, sixteen isolates (triclosan, clioquinol) or eighteen (cetalkonium chloride), read-out: MIC Range
[11] = pH 6.0, sixteen isolates (triclosan, clioquinol) or eighteen (cetalkonium chloride), read-out: MIC90
[12] = pH 6.0, sixteen isolates (triclosan, clioquinol) or eighteen (cetalkonium chloride), read-out: MIC Range
[13] = pH 6.5, sixteen isolates (triclosan, clioquinol) or eighteen (cetalkonium chloride), read-out: MIC90
[14] = pH 7.0, sixteen isolates (triclosan, clioquinol) or eighteen (cetalkonium chloride), read-out: MIC90
[15] = pH 7.0, sixteen isolates (triclosan, clioquinol) or eighteen (cetalkonium chloride), read-out: MIC Range
[16] = pH 7.5, sixteen isolates (triclosan, clioquinol) or eighteen (cetalkonium chloride), read-out: MIC90
[17] = pH 7.5, sixteen isolates (triclosan, clioquinol) or eighteen (cetalkonium chloride), read-out: MIC Range
[18] = pH 8.0, sixteen isolates (triclosan, clioquinol) or eighteen (cetalkonium chloride), read-out: MIC90
[19] = Helicobacter pylori, pH 7.2, read-out: MIC Range
[20] = Helicobacter pylori, eighteen isolates, neutral pH (agar pH 7.2), read-out: MIC90
[21] = eighteen isolates, neutral pH (agar pH 7.2)

## CCCCCCc1ccc(O)cc1O [4-Hexylresorcinol]
Helicobacter pylori [1]; [5]
  MIC50: 32 µg/mL (≈ 165 µM)
Helicobacter pylori [1]; Helicobacter pylori, pH 7.2
  MIC90: 32 µg/mL (≈ 165 µM)
Helicobacter pylori [1]; [6]
  MIC: 16 to 32 µg/mL (≈ 82.4 to 165 µM)

## CCCCCCCCCCCCCCCC[N+](C)(C)Cc1ccccc1 [Cetalkonium Cl]
Helicobacter pylori [2]; pH 8, read-out: MIC Range
  MIC: 1 to 8 µg/mL
Helicobacter pylori [2]; [7]
  MIC90: 1 µg/mL
Helicobacter pylori [2]; [8]
  MIC: 0.5 to 2 µg/mL
Helicobacter pylori [2]; [9]
  MIC90: 2 µg/mL
Helicobacter pylori [2]; [10]
  MIC: 0.5 to 2 µg/mL
Helicobacter pylori [2]; [11]
  MIC90: 2 µg/mL
Helicobacter pylori [2]; [12]
  MIC: 1 to 4 µg/mL
Helicobacter pylori [2]; [13]
  MIC90: 4 µg/mL
Helicobacter pylori [2]; pH 6.5, sixteen isolates (triclosan, clioquinol) or eighteen (cetalkonium chloride), read-out: MIC Range
  MIC: 2 to 4 µg/mL
Helicobacter pylori [2]; [14]
  MIC90: 4 µg/mL
Helicobacter pylori [2]; [15]
  MIC: 2 to 4 µg/mL
Helicobacter pylori [2]; [16]
  MIC90: 4 µg/mL
Helicobacter pylori [2]; [17]
  MIC: 1 to 4 µg/mL
Helicobacter pylori [2]; [18]
  MIC90: 2 µg/mL
Helicobacter pylori [2]
  activity compared among the three agents (in words): demonstrated similar MIC90 activity profiles across the pH range
  effect of pH on activity (in words): largely unaffected by pH over the range 5 to 8
Helicobacter pylori [1]; [5]
  MIC50: 2 µg/mL
Helicobacter pylori [1]; [19]
  MIC: 2 to 4 µg/mL
Helicobacter pylori [1]; [20]
  MIC90: 4 µg/mL

## Oc1c(I)cc(Cl)c2cccnc12 [Clioquinol, 5-chloro-7-iodo-8-hydroxy-quinolone]
Helicobacter pylori [2]; pH 6.5, read-out: MIC Range
  MIC: 0.5 to 16 µg/mL (≈ 1.64 to 52.4 µM)
Helicobacter pylori [2]; pH 8, read-out: MIC Range
  MIC: 0.5 to 2 µg/mL (≈ 1.64 to 6.55 µM)
Helicobacter pylori [2]; [7]
  MIC90: 2 µg/mL (≈ 6.55 µM)
Helicobacter pylori [2]; [8]
  MIC: 0.5 to 4 µg/mL (≈ 1.64 to 13.1 µM)
Helicobacter pylori [2]; [9]
  MIC90: 8 µg/mL (≈ 26.2 µM)
Helicobacter pylori [2]; [10]
  MIC: 2 to 8 µg/mL (≈ 6.55 to 26.2 µM)
Helicobacter pylori [2]; [11]
  MIC90: 8 µg/mL (≈ 26.2 µM)
Helicobacter pylori [2]; [12]
  MIC: 2 to 8 µg/mL (≈ 6.55 to 26.2 µM)
Helicobacter pylori [2]; [13]
  MIC90: 8 µg/mL (≈ 26.2 µM)
Helicobacter pylori [2]; [14]
  MIC90: 2 µg/mL (≈ 6.55 µM)
Helicobacter pylori [2]; [15]
  MIC: 0.5 to 4 µg/mL (≈ 1.64 to 13.1 µM)
Helicobacter pylori [2]; [16]
  MIC90: 2 µg/mL (≈ 6.55 µM)
Helicobacter pylori [2]; [17]
  MIC: 0.5 to 4 µg/mL (≈ 1.64 to 13.1 µM)
Helicobacter pylori [2]; [18]
  MIC90: 1 µg/mL (≈ 3.27 µM)
Helicobacter pylori [1]; [5]
  MIC50: 16 µg/mL (≈ 52.4 µM)
Helicobacter pylori [1]; [19]
  MIC: 8 to 16 µg/mL (≈ 26.2 to 52.4 µM)
Helicobacter pylori [1]; [20]
  MIC90: 16 µg/mL (≈ 52.4 µM)

## Oc1ccc(Cl)cc1Cc1cc(Cl)ccc1O [Dichlorphen]
Helicobacter pylori [1]; [5]
  MIC50: 16 µg/mL (≈ 59.5 µM)
Helicobacter pylori [1]; [20]
  MIC90: 16 µg/mL (≈ 59.5 µM)
Helicobacter pylori [1]; [6]
  MIC: 8 to 16 µg/mL (≈ 29.7 to 59.5 µM)

## COc1ccccc1O [Guaiacol]
Helicobacter pylori [1]; [5]
  MIC50: 64 µg/mL (≈ 516 µM)
Helicobacter pylori [1]; [20]
  MIC90: 64 µg/mL (≈ 516 µM)
Helicobacter pylori [1]; [6]
  MIC: 32 to 128 µg/mL (≈ 258 to 1030 µM)

## CCCCC(CC)CN1CN(CC(CC)CCCC)CC(C)(N)C1 (stereo not drawn) [Hexetidine]
Helicobacter pylori [1]; [5]
  MIC50: 16 µg/mL (≈ 47.1 µM)
Helicobacter pylori [1]; [20]
  MIC90: 16 µg/mL (≈ 47.1 µM)
Helicobacter pylori [1]; [6]
  MIC: 8 to 16 µg/mL (≈ 23.6 to 47.1 µM)

## N=C(NCCCCCCNC(=N)NC(=N)Nc1ccc(Cl)cc1)NC(=N)Nc1ccc(Cl)cc1 [Hibitane]
Helicobacter pylori [1]; [5]
  MIC50: 32 µg/mL (≈ 63.3 µM)
Helicobacter pylori [1]; [20]
  MIC90: 32 µg/mL (≈ 63.3 µM)
Helicobacter pylori [1]; [6]
  MIC: 16 to 32 µg/mL (≈ 31.7 to 63.3 µM)

## Cc1cc(O)cc(C)c1Cl [PCMX]
Helicobacter pylori [1]; [5]
  MIC50: 32 µg/mL (≈ 204 µM)
Helicobacter pylori [1]; [20]
  MIC90: 64 µg/mL (≈ 409 µM)
Helicobacter pylori [1]; [6]
  MIC: 8 to 64 µg/mL (≈ 51.1 to 409 µM)

## CCS(=O)(=O)CCn1c([N+](=O)[O-])cnc1C [Tinidazole]
Helicobacter pylori [1]; [5]
  MIC50: 0.5 µg/mL (≈ 2.02 µM)
Helicobacter pylori [1]; Helicobacter pylori, 72 h, fifteen of eighteen isolates, neutral pH, read-out: MIC of sensitive isolates
  MIC: < 2 µg/mL
Helicobacter pylori [1]; Helicobacter pylori, 72 h, three of eighteen strains, neutral pH, read-out: MIC of strains demonstrating evidence of resistance
  MIC: 16 µg/mL
Helicobacter pylori [1]; [20]
  MIC90: 16 µg/mL (≈ 64.7 µM)
Helicobacter pylori [1]; [6]
  MIC: 0.25 to 16 µg/mL (≈ 1.01 to 64.7 µM)
Helicobacter pylori [1]; eighteen isolates, neutral pH
  distribution of MICs: bimodal distribution of MICs
Helicobacter pylori [1]; neutral pH
  activity compared with the twelve agents tested: demonstrated the greatest activity of the twelve antimicrobial agents tested

## Oc1cc(Cl)ccc1Oc1ccc(Cl)cc1Cl [Triclosan, 2-hydroxy-4,2',4'-trichloro-diphenyl ether]
Helicobacter pylori [2]; pH 5
  MIC90: 0.25 µg/mL (≈ 0.863 µM)
Helicobacter pylori [2]; pH 5, read-out: MIC Range
  MIC: 0.06 to 0.25 µg/mL (≈ 0.207 to 0.863 µM)
Helicobacter pylori [2]; pH 5.5
  MIC90: 1 µg/mL (≈ 3.45 µM)
Helicobacter pylori [2]; pH 5.5, read-out: MIC Range
  MIC: 0.06 to 1 µg/mL (≈ 0.207 to 3.45 µM)
Helicobacter pylori [2]; pH 6
  MIC90: 1 µg/mL (≈ 3.45 µM)
Helicobacter pylori [2]; pH 6, read-out: MIC Range
  MIC: 0.12 to 2 µg/mL (≈ 0.414 to 6.91 µM)
Helicobacter pylori [2]; pH 6.5
  MIC90: 2 µg/mL (≈ 6.91 µM)
Helicobacter pylori [2]; pH 6.5, read-out: MIC Range
  MIC: 0.12 to 4 µg/mL (≈ 0.414 to 13.8 µM)
Helicobacter pylori [2]; pH 7
  MIC90: 2 µg/mL (≈ 6.91 µM)
Helicobacter pylori [2]; pH 7, read-out: MIC Range
  MIC: 0.06 to 4 µg/mL (≈ 0.207 to 13.8 µM)
Helicobacter pylori [2]; pH 7.5
  MIC90: 2 µg/mL (≈ 6.91 µM)
Helicobacter pylori [2]; pH 7.5, read-out: MIC Range
  MIC: 0.06 to 4 µg/mL (≈ 0.207 to 13.8 µM)
Helicobacter pylori [2]; pH 8
  MIC90: 2 µg/mL (≈ 6.91 µM)
Helicobacter pylori [2]; pH 8, read-out: MIC Range
  MIC: 0.06 to 2 µg/mL (≈ 0.207 to 6.91 µM)
Helicobacter pylori [2]
  activity compared among the three agents (in words): demonstrated the greatest activity
  effect of pH on activity (in words): low at pH 5.0 and unaffected in the range pH 5.5 to 8.0
Helicobacter pylori [1]; Helicobacter pylori, 72 h, pH 7.2
  MIC50: 1 µg/mL (≈ 3.45 µM)
Helicobacter pylori [1]; Helicobacter pylori, pH 7.2
  MIC90: 8 µg/mL (≈ 27.6 µM)
Helicobacter pylori [1]; [19]
  MIC: 0.25 to 16 µg/mL (≈ 0.863 to 55.3 µM)
Helicobacter pylori [1]; neutral pH
  activity compared with the twelve agents tested: demonstrated the greatest activity of the twelve antimicrobial agents tested

## O=C([O-])CC(O)(CC(=O)[O-])C(=O)[O-].O=C([O-])CC(O)(CC(=O)[O-])C(=O)[O-].[Bi+3].[K+].[K+].[K+] [bismuth subcitrate]
Helicobacter pylori [3]; neutral pH
  reported MIC90: 16 µg/mL

## Cc1ncc([N+](=O)[O-])n1CCO [metronidazole]
Helicobacter pylori [3]
  distribution of MICs (previously reported): bimodal distribution

## Halquinol
Helicobacter pylori [1]; [21]
  MIC50: 16 µg/mL
  MIC90: 16 µg/mL
  MIC Range: 16 µg/mL

## bismuth
[4]
  recurrence of the infection: ~100%
